Source: patent publication US7049066B2, “Diagnosis and treatment of myocardial failure” (The Regents of the University of Colorado, priority 1997, dated 2006)

Assays:
[1] = system: α-MHC; settings: hypothyroid rats; cited from earlier work
[2] = system: isolated right ventricular (RV) trabeculae from end-stage failing human hearts; settings: 1 nM T3, incubated for 4 or 12 hours

## O=C(O)CCc1cc(I)c(Oc2ccc(O)cc2)c(I)c1 [3,5-diiodothyroproprionic acid]
[1]
  production of α-MHC: increase the production of (α-MHC

## N[C@@H](Cc1cc(I)c(Oc2ccc(O)c(I)c2)c(I)c1)C(=O)O [T3, 3,5,3′-triiodo-L-thyronine]
[2]
  SRCA gene expression, T3 group compared to control group: no significant differences
  adrenergic receptor gene expression, T3 group compared to control group: no significant differences
[2]; p < .05 vs. no T3
  % α-MHC isoform mRNA present following incubation: 24.5 ± 9.29 %
  % β-MHC isoform mRNA present following incubation: 75.5 ± 9.29 %
